Assay results: US20190254285A1, “SODIUM PHOSPHITE COMBINATIONS” (priority 2016, published 2019)

Key:
[1] = system: Botrytis cinerea; assay: Botrytis cinerea rot on wounded apple and banana fruit; type: in vivo; set-up: key: Different results are indicated by different letters; Different results are indicated by different letters; Different results are indicated by different letters; Different results are indicated by different letters; Different results are indicated by different letters
Source text: Tested fruit: apple (cv Elstar) and a banana (cv Cavendish) from organic origin/SKAL certified. SKAL is a semi-governmental Dutch organization that controls organic production in the Netherlands.
Used pathogen: Botrytis cinerea spore-suspension containing ˜3×10^5 propagules (spores)/ml.
Application: Fruit peel was damaged with a cork borer, depth ˜0.5 cm into the fruit, 2 wounds per apple fruit; 2 wounds per banana fruit. 30 microliters of a freshly prepared spore suspension of B. cinerea (estimated 3×10^5 spores/ml) were applied by pipette onto each wound. Subsequently, the spore-suspension was allowed to air-dry for 3 hours. 50 microliters of fungicide suspensions 1-6 were applied by pipette to each wound.
All fruits were kept at room temperature (20° C.).
Replicates: All treatments (1-6) were performed on 6 individual apples and 6 individual bananas with 2 wounds each resulting in 12 wounds per fruit per treatment. The recorded observed antifungal activity is the reduction (in percentages) of the average surface of the rot as observed in the 12 wounds compared to the rot surface of the untreated control.
Observation: All wounds were inspected daily for visual symptoms of fruit rot and/or fungus growth. Rot surface was determined after 5 and 7 days (see Tables 1, 2 and 3). The recorded observed antifungal activity is the surface of the rot.

[2] = system: Plasmopara viticola; assay: Downy mildew on grapevine plants in greenhouse, phosphites and DITHANE Neotec; type: in vivo; conditions: for Incidence: 21 days after the second treatment application, phosphite 1.50 l of 2 M solution/100 l, DITHANE Neotec 0.05 kg/100 liter water
Method: The trial was conducted with young plants of grapevine cultivar MERLOT in a greenhouse. Treatments were applied twice, once when 3 to 4 leaves were unfolded and the second application 10 days later. Each treatment had 4 plots as replications. The experimental set up was completely randomized and each plot had 3 plants. Inoculation of the plants with the pathogen Plasmopara viticola was performed 4 days after the second application. The suspension of the spores in water was prepared at the concentration of 20,000 to 40,000 spores/ml. All foliage ware inoculated. The different phosphites were applied at the same molar concentration of phosphite. With the high phosphite treatments, a concentration of 1.50 1 of a 2 M solution/100 1 was used and with the low phosphite treatment a concentration of 0.75 1 of a 2 M solution/100 1. […] An assessment on incidence and severity was performed 21 and 28 days after the second application. Efficacy was calculated for severity in comparison to untreated control infected. Similar to Example 5, with the following amendments: […] One measurement was performed at 21 days after the second application.

[3] = system: grapevine plants; assay: Phytotoxicity on grapevine plants; set-up: species or system grapevine cultivar MERLOT; conditions: in vivo
Method: Treatments were applied twice, once when 3 to 4 leaves were unfolded and the second application 10 days later. […] The experimental set up was completely randomized and each plot had 3 plants. Inoculation of the plants with the pathogen Plasmopara viticola was performed 4 days after the second application. The suspension of the spores in water was prepared at the concentration of 20,000 to 40,000 spores/ml. All foliage ware inoculated. The different phosphites were applied at the same molar concentration of phosphite. With the high phosphite treatments, a concentration of 1.50 1 of a 2 M solution/100 1 was used and with the low phosphite treatment a concentration of 0.75 1 of a 2 M solution/100 1. REVUS® was used with a standard concentration of 0.015 liter/100 liter. An assessment on incidence and severity was performed 21 and 28 days after the second application. Efficacy was calculated for severity in comparison to untreated control infected.

[4] = system: Plasmopara viticola; assay: Downy mildew on grapevine plants in greenhouse, phosphites and REVUS; type: in vivo; conditions: conclusion from Table 5
Method: The trial was conducted with young plants of grapevine cultivar MERLOT in a greenhouse. […] Treatments were applied twice, once when 3 to 4 leaves were unfolded and the second application 10 days later. […] Inoculation of the plants with the pathogen Plasmopara viticola was performed 4 days after the second application. The suspension of the spores in water was prepared at the concentration of 20,000 to 40,000 spores/ml. All foliage ware inoculated. The different phosphites were applied at the same molar concentration of phosphite. With the high phosphite treatments, a concentration of 1.50 1 of a 2 M solution/100 1 was used and with the low phosphite treatment a concentration of 0.75 1 of a 2 M solution/100 1. […] An assessment on incidence and severity was performed 21 and 28 days after the second application. Efficacy was calculated for severity in comparison to untreated control infected.

[5] = system: black sigatoka; assay: Black sigatoka on banana plants, single leaf test, leaf 3 curative, Bravo 72 SC; type: in vivo; conditions: for Area infected (%) / Efficacy: 16 DAA, leaf 3 curative, Bravo 72 SC 0.875 liter/ha, phosphites 3 L/ha; for Efficacy: vs untreated control
Method: A single leaf test was established in a research station located in the community of “Anita Grande,” county of Jimenez, province of Limon, Costa Rica (latitude 10°15′14.15″N, longitude 83°44′20.29″W).
Every treatment was established in individual plants. Treatments were applied to leaf number 1 to determine their effect as preventive. Leaf position is counted from top to bottom, whereby leaf number 1 is closest to the unfolded leaf. Treatments were distributed systematically to facilitate their location in the field.
Product applications were done in an area of 10×10 cm, with a special equipment designed to simulate aerial applications. Application was done at 35 pound-force per square inch. Since weather conditions were highly conducive for disease development, and inoculum density was very high, no artificial inoculation was done. All treatments were applied to the same position on the leaf to minimize experimental error. All treatments were applied at the equivalent volume of 25 L ha^−1, as it is done commercially. A total of 3 sprays were applied, application A at Day 0, application B at 7 days after application A (DAA), and application C at day 13 DAA. VOLLEY® 88 OL was sprayed at 5.525 L/ha and the different phosphites were applied at the same PO3 concentration of 2 mol/l and were sprayed at 3 liter/ha.
For the evaluation of the efficacy, the diseased area that was affected in the 10×10 cm leaf area was recorded. Evaluations were done 23, 30 and 36 DAA. Efficacy was calculated by comparing the treatments against the untreated control.
Similar to Example 9, with the following differences: Treatments and measurements were applied to leaf number 3, to determine their effect as curative, and one measurement was performed at 8 days after application A (DAA).
Similar to Example 10, with the following differences: Bravo 72 SC (chlorothalonil; Syngenta) was applied at 0.875 liter/ha instead of DITHANE® 60 SC and the phosphites were spayed at a rate of 3 L/ha. One measurement was done at 16 DAA.

[6] = Table 1, phosphonate Concentration 1, mandipropamid control
[7] = Table 1, phosphonate Concentration 2, mandipropamid control
[8] = Table 1, phosphonate Concentration 3, mandipropamid control
[9] = Table 2, phosphonate Concentration 2, mefenoxam control

Molecule	Effect on fungicidal attack of Botrytis on apple and banana [1, 6]	Effect on fungicidal attack of Botrytis on apple and banana [1, 7]	Effect on fungicidal attack of Botrytis on apple and banana [1, 8]	Effect on fungicidal attack of Botrytis on apple and banana [1, 9]	Effect on fungicidal attack of Botrytis on apple and banana ([1]; Table 3, Na2HPO3 part, Concentration 1, mandipropamid control)	Effect on fungicidal attack of Botrytis on apple and banana ([1]; Table 3, Na2HPO3 part, Concentration 2, mandipropamid control)	Effect on fungicidal attack of Botrytis on apple and banana ([1]; Table 3, Na2HPO3 part, Concentration 3, mandipropamid control)	Incidence [2]	Increase of the fungal efficacy of DITHANE Neotec compared with other phosphite salts ([2]; conclusion from Table 6)	Phytotox (%) [3] [%]	Increase of the fungal efficacy of REVUS compared with other phosphite salts [4]	Area infected (%) [5] [%]	Efficacy [5]	Increase of the fungal efficacy of Bravo 72 SC compared with other phosphite salts ([5]; conclusion from Table 11)
disodium hydrogen phosphite [Na2HPO3]	d	c	b	c	d	c	b	10.0	increases the fungal efficacy of DITHANE® Neotec the best	0	increases the fungal efficacy of REVUS® the best	68.0	4.2	increases the fungal efficacy of Bravo 72 SC the best
N.N.O=[PH](O)O [(NH4)2HPO3]	d	c	b	c								51.0	28.2	
O=[PH]([O-])[O-].[K+].[K+] [Treatment K2HPO3]	d	c	b	c				5.0				68.0	4.2	
